How the values were obtained:
Type in all cases: cell-based
GPR39 [1] = target: T1, GPR39 (Homo sapiens, UniProt O43194); test: IP1 assay (HTRF), HEK293s-hGPR39 cells; parameters: Full length human (AF034633), rat (DM091294) and mouse (BC085285) GPR39; expressed in transfected cells; host or cells: HEK293s (ATCC CRL-1573), pIRESneo3 vector, selected clones; conditions: for Efficacy at 33 μM: AZ1395 100% reference
T1 sequence (O43194 1-453): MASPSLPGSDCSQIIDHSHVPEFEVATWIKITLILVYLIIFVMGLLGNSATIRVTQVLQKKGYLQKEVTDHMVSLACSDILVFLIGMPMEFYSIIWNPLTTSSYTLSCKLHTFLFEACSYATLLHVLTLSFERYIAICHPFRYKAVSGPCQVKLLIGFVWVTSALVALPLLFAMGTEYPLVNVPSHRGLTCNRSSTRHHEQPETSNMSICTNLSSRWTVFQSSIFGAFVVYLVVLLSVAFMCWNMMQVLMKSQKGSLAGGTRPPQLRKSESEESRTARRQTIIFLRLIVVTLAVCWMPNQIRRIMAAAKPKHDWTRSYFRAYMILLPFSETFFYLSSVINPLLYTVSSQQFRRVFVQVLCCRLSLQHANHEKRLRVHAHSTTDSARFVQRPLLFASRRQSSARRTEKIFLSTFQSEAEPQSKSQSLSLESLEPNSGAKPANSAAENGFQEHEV
Text: (§1) Full length human (AF034633), rat (DM091294) and mouse (BC085285) GPR39 (GeneArt–Life Technologies, Carlsbad, CA) were subcloned into the pIRESneo3 vector (Clontech, Mountain View, CA). The resulting expression vectors hGPR39-, rGPR39- and mGPR39-pIRESneo3 were transfected into HEK293s cells (ATCC CRL-1573) using Lipofectamine 2000 (Life Technologies). Individual clones were isolated using flow cytometry with a FACSVantage SE DIVA (Becton Dickinson, Franklin Lakes, NJ) and clones were chosen based on responses to Zn^2+ measured in a cAMP assay (see below). […] HEK293s-derived cell lines were cultured at 37°C, 10% CO2 and 95% humidity in DMEM supplemented with 10% FBS and 600 μg/ml Geneticin (Life Technologies). The mouse pancreas epithelial cell line NIT-1 (ATCC CRL-2055) with endogenous expression of GPR39 was cultured at 37°C, 5% CO2, and 95% humidity in Ham´s F12 (Life Technologies) supplemented with 10% FBS.
IP1 assays were performed using IP-One Tb kits (CisBio). IP1 production was detected by HTRF as described above. Buffers and reagents were according to manufacturers’ protocols except LiCl concentrations in stimulation buffer which were 50 mM in assays employing HEK293s-hGPR39 cells and 20 mM in assays using NIT-1 cells. For assays using HEK293s-hGPR39 cells, 12,500 cells per well were dispensed into small-volume 384-well plates (Greiner) and IP1 production was stimulated in the presence of compounds for 30 min at 37 °C in a total volume of 20 μl. For assays using NIT-1 cells, 25,000 cells per well were seeded into poly-D-lysine coated 384-well plates (Becton-Dickinson) and cultured in Ham´s F12 medium with 10% FBS. After 48 h, cells were washed with stimulation buffer and IP1 production stimulated in the presence of compounds for 45 min at 37 °C in a total volume of 60 μl.
(§2) Concentration response data were fitted with a four parameter logistic fit using Eq 1, y=A+((B−A)/1+((C/x)^D))) (1) where A is no activation, B is full activation, C is the EC50 and D is the Hill slope.

GPR39 [2] = target: T1, GPR39; test: DMR positive allosteric modulator (PAM) experiments, compound and Zn^2+ interdependencies; parameters: Full length human (AF034633), rat (DM091294) and mouse (BC085285) GPR39; expressed in transfected cells
Procedure: (§3) DMR assays were performed using an Epic instrument (Corning Inc., Corning, NY). 12,000 cells per well were cultured for 24 h in 384-well fibronectin-coated Epic biosensor plates (Corning). On the day of experiment, culture medium was removed and replaced with 30 μl buffer A (HBSS, HEPES 20 mM pH7.4, 1% DMSO, 0.01% BSA) using an EL406 (Bio-Tek). Plates were incubated at 26 °C for 1 h inside the Epic to allow for temperature equilibration. A baseline was read for 2 min, and then 15 μl compounds in buffer A were added using a CyBi-Well vario (CyBio) and DMR was detected during 45 min.
Concentration response curves for the interaction between ortosteric and allosteric ligands in the DNR assay were globally fitted to the operational model of allosterism and agonism as described in Leach et al.. Binding data were fitted using one site or two site binding models.
Utilizing the DMR platform, positive allosteric modulator (PAM) experiments were performed in order to more accurately determine the influences of Zn^2+ on the three compounds, see Fig 4. Compound dose responses were generated at 10 different Zn^2+ concentrations, spanning 0 to 30 μM. The presence of Zn^2+ increased potencies of compounds up to 10000-fold. Data were initially globally fitted to the operational model of allosterism and agonism described by Leach et al. However, fits obtained were not of sufficient quality. We therefore decided to calculate modulation in a more simplistic way, here called PAM EC50 and defined as the concentration of modulator (Zn^2+) causing half maximum potentiation of agonist potency.

GPR39 [3] = target: T1, GPR39; test: Dynamic mass redistribution (DMR) label-free assay, HEK293s-hGPR39 cells; parameters: Full length human (AF034633), rat (DM091294) and mouse (BC085285) GPR39; expressed in transfected cells; host or cells: HEK293s (ATCC CRL-1573), pIRESneo3 vector, selected clones; conditions: for Efficacy at 33 μM: AZ1395 100% reference
Text: as §1, §3, §2

[4] = absence (w/o) of Zn^2+, read-out: pEC50 ± SD (converted)
[5] = presence of 5 μM Zn^2+, read-out: pEC50 ± SD (converted)
[6] = presence of 5 μM Zn^2+, read-out: EC50
[7] = absence (w/o) of Zn^2+, read-out: EC50
[8] = Zn^2+ by itself, read-out: EC50

For `N#Cc1ccc(OCCn2ccnc2)c(OCCn2ccnc2)c1` [AZ1395, 3,4-bis-(2-imidazol-1-ylethoxy)-benzonitrile], the EC50 (GPR39 [1]; [4]) was 2.88 µM, the EC50 (GPR39 [1]; [5]) was 0.0191 µM and the EC50 (GPR39 [2]; [Zn2+] μM: 0) was 3 µM. It also gave an EC50 (GPR39 [2]; [Zn2+] μM: 1e-7) of 2.6 µM, an EC50 (GPR39 [2]; [Zn2+] μM: 5e-7) of 2.4 µM and an EC50 (GPR39 [2]; [Zn2+] μM: 1e-6) of 1.7 µM. The EC50 (GPR39 [2]; [Zn2+] μM: 5e-6) was 0.057 µM, the EC50 (GPR39 [2]; [Zn2+] μM: 7e-6) was 0.015 µM and the EC50 (GPR39 [2]; [Zn2+] μM: 1e-5) was 0.014 µM. It also gave an EC50 (GPR39 [2]; [Zn2+] μM: 2e-5) of 0.0035 µM, an EC50 (GPR39 [2]; [Zn2+] μM: 3e-5) of 0.0027 µM and an EC50 (GPR39 [2]; [Zn2+] μM: 3) of 0.16 µM. It also gave an Emax (GPR39 [2]; in the absence of Zn^2+) of ~75%, an EC50 (GPR39 [3]; [4]) of 2.29 µM and an EC50 (GPR39 [3]; [6]) of 0.036 µM. For the same compound, the EC50 (GPR39 [3]; [5]) was 0.0355 µM.

In the case of `Cc1nc2c(C(=O)O)cnn2c(O)c1Cc1ccc(Cl)cc1` [AZ4237, 6-[(4-chlorophenyl)methyl]-7-hydroxy-5-methyl-pyrazolo[1,5-a]pyrimidine-3-carboxylic acid], the “Efficacy at 33 μM” value (GPR39 [1]; absence (w/o) of Zn^2+) is reported as 66%, the EC50 (GPR39 [1]; [7]) is reported as > 33 µM and the EC50 (GPR39 [1]; [5]) is reported as 0.0339 µM. The EC50 (GPR39 [2]; [Zn2+] μM: 0) was > 33 µM, the EC50 (GPR39 [2]; [Zn2+] μM: 1e-7) was > 33 µM and the EC50 (GPR39 [2]; [Zn2+] μM: 5e-7) was > 33 µM. The EC50 (GPR39 [2]; [Zn2+] μM: 1e-6) was 8.3 µM, the EC50 (GPR39 [2]; [Zn2+] μM: 5e-6) was 0.058 µM and the EC50 (GPR39 [2]; [Zn2+] μM: 7e-6) was 0.045 µM. The EC50 (GPR39 [2]; [Zn2+] μM: 1e-5) was 0.015 µM, the EC50 (GPR39 [2]; [Zn2+] μM: 2e-5) was 0.0074 µM and the EC50 (GPR39 [2]; [Zn2+] μM: 3e-5) was 0.003 µM. The EC50 (GPR39 [2]; [Zn2+] μM: 3) was 0.58 µM, the “Efficacy at 33 μM” value (GPR39 [3]; absence (w/o) of Zn^2+) was 20% and the EC50 (GPR39 [3]; [7]) was > 33 µM. It also gave an EC50 (GPR39 [3]; [5]) of 0.191 µM.

With `Cc1nc(-c2nc3c(c(=O)[nH]2)CN(C(=O)c2cccc(Cl)c2F)CC3)cs1` [AZ7914, 6-(3-chloro-2-fluoro-benzoyl)-2-(2-methylthiazol-4-yl)-3,5,7,8-tetrahydropyrido-[4,3-d]pyrimidin-4-one] the “Efficacy at 33 μM” value (GPR39 [1]; absence (w/o) of Zn^2+) was 45%, the EC50 (GPR39 [1]; [7]) was > 33 µM and the EC50 (GPR39 [1]; [6]) was 0.074 µM. The EC50 (GPR39 [2]; [Zn2+] μM: 0) was > 33 µM, the EC50 (GPR39 [2]; [Zn2+] μM: 1e-7) was > 33 µM and the EC50 (GPR39 [2]; [Zn2+] μM: 5e-7) was > 33 µM. The EC50 (GPR39 [2]; [Zn2+] μM: 1e-6) was > 33 µM, the EC50 (GPR39 [2]; [Zn2+] μM: 5e-6) was 0.29 µM and the EC50 (GPR39 [2]; [Zn2+] μM: 7e-6) was 0.09 µM. The EC50 (GPR39 [2]; [Zn2+] μM: 1e-5) was 0.042 µM, the EC50 (GPR39 [2]; [Zn2+] μM: 2e-5) was 0.0095 µM and the EC50 (GPR39 [2]; [Zn2+] μM: 3e-5) was 0.0063 µM. For the same compound, the EC50 (GPR39 [2]; [Zn2+] μM: 3) was 1.6 µM, the “Efficacy at 33 μM” value (GPR39 [3]; absence (w/o) of Zn^2+) was 39% and the EC50 (GPR39 [3]; [7]) was > 33 µM. The EC50 (GPR39 [3]; [5]) was 0.102 µM.

In the case of `[Zn+2]` [Zn^2+], the “pEC50 ± SD” value (GPR39 [1]; Zn^2+ by itself) is reported as “(4.63 ± 0.08)”, the EC50 (GPR39 [1]; [8]) is reported as 24 µM and the “Emax for Zn^2+ alone, of Emax for Zn^2+ together with any of the GPR39 agonists” value (GPR39 [2]; Zn^2+ alone) is reported as “approximately 35%”. The “Emax relative to the 100% efficacy reference AZ1395” value (GPR39 [3]; Zn^2+ by itself) was ~35%, the “pEC50 ± SD” value (GPR39 [3]; Zn^2+ by itself) was “(4.87 ± 0.05)” and the EC50 (GPR39 [3]; [8]) was 13 µM.
